# Measurements as given in patent US9718771B2, “Aniline derivative, pharmaceutical composition containing same, and use thereof” (Kissei Pharmaceutical Co., Ltd., priority 2014, dated 2017).
# System: male guinea pigs
# Experiment: Confirmation test for reduction effects on heart rate
# Type: in vivo
# Settings: anesthetized guinea pigs, intravenous (vein of penis), 0.03 mg/kg
# Description: Confirmation Test for Reduction Effects on Heart Rate
# Effects on heart rate of a test compound and fingolimod, which is an S1P1 receptor agonist, were confirmed using male guinea pigs (Japan SLC, 5 to 8-weeks-old in use). Guinea pigs were incised in the median line of cervical region under anesthesia with pentobarbital (Kyoritsu Pharmaceutical) by intraperitoneal administration. A PE90 catheter filled with saline (Otsuka Pharmaceutical Factory) containing 50 units/mL heparin (Mochida Pharmaceutical) was inserted to right common carotid artery. By holding the insertion site of the catheter with silk sutures, it was performed to avoid bleeding from the insertion site and to fix the catheter. After it was confirmed that blood flow reached into the catheter, an apical end of catheter opposite to the insertion site of artery was connected to pressure transducer, and blood pressure and heart rate were measured via a strain pressure amplifier and a heart rate counter unit, respectively. […]
# After it was confirmed that blood pressure and heart rate were stabilized in guinea pigs, vehicle, the test compound or fingolimod was administered into the vein of penis at 0.25 mL/kg using 1 mL syringes with needles of 27G. The changes of blood pressure and heart rate were measured every 5 minutes after administration of vehicle, the test compound or fingolimod.
smiles,measurement,value
CCCCCCCCc1ccc(CCC(N)(CO)CO)cc1 [fingolimod],effect on heart rate,remarkable reduction of heart rate
